# Test results as given in patent publication US8748130B2, “Human papillomavirus / Ii-Key hybrids and methods of use” (priority 2008, dated 2014).
# System: HPV11-specific CTL activity
# Assay: In vivo CTL assay (CFSE-labelled target cells) after co-immunization with CTL epitope HPV11
# Design: species or system HLA-DR4-tg mice
# Settings: 3 weeks
# Method: HLA-DR4-tg mice were immunized with no peptide (A); 60 nmole of HPV11 (HPV16 E7 (49-57) an H-2D^b-restricted CTL epitope) (B); 60 nmole of HPV11 plus 15 nmole HPV4 hybrid (C); 60 nmole of HPV11 plus 30 nmole HPV4 hybrid (D); or 60 nmole of HPV11 plus 60 nmole HPV4 hybrid (E). Peptides were mixed with 20 μg of CpG and then emulsified in an equal volume of IFA in a total volume of 150 μl/mouse. Three weeks after immunization, HPV11-specific CTL activity was measured in an in vivo assay whereby the cells were incubated with either the immunizing peptide (HPV11) and a high concentration of CFSE or no peptide and a low concentration of CFSE. Equal numbers of the two cell populations were mixed and injected by tail vein into mice. The top figure indicates the percentage of HPV11-specific CTL killing as determined by the ratio of CFSE^low to CFSE^high cells using the formula 1—CFSE^low/CFSE^high following flowcytometry. The histograms for each group are shown below. The data shown are from pooled splenocytes (2 mice per group).
# HLA-DR4-tg mice were immunized with no peptide (A); 60 nmole of HPV11 (HPV16 E7 (49-57), an H-2D^b-restricted CTL epitope) (B); 30 nmole HPV1 plus 60 nmole HPV11 (C); or 30 nmole HPV4 plus 60 nmole HPV11. The peptides were administered as indicated for FIG. 3. Three weeks after immunization, HPV11-specific CTL activity was measured in an in vivo assay (see FIG. 3). […]
substance,measurement,setting,value
rahynivtf (RAHYNIVTF; Human papillomavirus type 16) [HPV11],HPV11-specific CTL killing (%),"Table 5: 60 nmole HPV11 alone, CpG + IFA, pooled splenocytes (2 mice per group)",19%
same,HPV11-specific CTL activity (%),"Table 6: 60 nmole HPV11 alone or with 30 nmole HPV1 or HPV4, CpG + IFA, pooled splenic cells",14%
